# In patent US20130085161A1, “PIPERIDINYL SUBSTITUTED 1,3-DIHYDRO-BENZOIMIDAZOL-2-YLIDENEAMINE DERIVATIVES” (NOVARTIS AG, priority 2010, published 2013):
# Legend:
# BaF3-Tel-IGF1-R [1] = target: T1, BaF3-Tel-IGF1-R (Homo sapiens, UniProt P08069); experiment: BaF3 cell viability assay (resazurin/AlamarBlue), 96-well format; type: cell-based; settings: 96-well plate format; 48 h incubation; resazurin dye reduction; cell proliferation/viability
# T1 construct: the kinase domain of IGF-1R (aa 976-1367) linked by a Ser-Arg-linker; expressed in transfected cells; host or cells: BaF3 murine proB-cell lymphoma cells, stably transduced
# T1 sequence (P08069 976-1367): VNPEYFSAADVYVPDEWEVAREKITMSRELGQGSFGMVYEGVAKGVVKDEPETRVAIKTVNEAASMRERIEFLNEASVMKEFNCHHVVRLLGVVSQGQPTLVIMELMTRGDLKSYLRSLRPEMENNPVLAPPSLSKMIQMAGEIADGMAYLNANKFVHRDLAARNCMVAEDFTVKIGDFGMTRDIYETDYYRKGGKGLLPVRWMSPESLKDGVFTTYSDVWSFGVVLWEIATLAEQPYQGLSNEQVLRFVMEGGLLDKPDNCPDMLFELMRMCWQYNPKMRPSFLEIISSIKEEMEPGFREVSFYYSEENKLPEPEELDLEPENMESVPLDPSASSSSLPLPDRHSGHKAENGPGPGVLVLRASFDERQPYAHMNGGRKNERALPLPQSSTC
# Excerpt: BaF3-Tel-IGF1-R and BaF3-InsR are BaF3 murine proB-cell lymphoma cell derivatives [the BaF3 cell line (also termed Ba/F3) is available from the German Collection of Microorganisms and Cell Cultures (DSMZ), Braunschweig, Germany] that have been rendered IL-3-independent by stable transduction with kinase-activating fusions between human TEL (aa 1-452) and the kinase domain of IGF-1R (aa 976-1367) linked by a Ser-Arg-linker (Boulay et al, Cancer Res 68, 3743-3751, 2008), and a fusion between human TEL (aa 1-337) and the kinase domain (aa 1015-1382) of the Insulin receptor (Melnick J S et al, Proc Natl Acad Sci USA 103, 3153-3158, 2006), respectively. Cells are cultured in RPMI-1640 (Animed #1-14F01-1) supplemented with 2% L-glutamine (Animed #5-10K50-H) and 10% fetal calf serum (FCS, Animed #2-01F16-I). Wild-type, untransfected BaF3 cells are maintained in above medium plus 10 U/ml IL-3 (mouse Interleukin-3, Roche #1380745 or Invitrogen # PMC0035) and are used to identify non-selective, generally growth-inhibitory compounds. Cells (1.5×10^4 cells per well) are seeded in 190 μl fresh medium into 96-well plates. […] In addition, a plate blank value is routinely determined in a well containing only 100 μl of medium and no cells. […] Following incubation of the cells for 48 h at 37° C. and 5% CO2, the effect of inhibitors on cell viability is assessed by the resazurin sodium salt dye reduction assay (commercially known as AlamarBlue assay) basically as previously described (O'Brien J. et al., Eur. J. Biochem. 267: 5421-5426, 2000). […] Thereafter, fluorescence is measured using a Saphirell 96-well plate reader (TECAN, Männedorf, Switzerland) with the following settings: Excitation 544 nm and Emission 590 nm. […] The effect of a particular test compound concentration on cell proliferation and viability is expressed as percentage of the blank-corrected reading obtained for cells treated with vehicle only, which is set as 100%. IC50 values can be determined using XLfit (V4.2), applying standard four parameter logistic model #205 (IDBS, Guilford, UK) or other common curve-fitting software.
# BaF3-Tel-IGF1-R [2] = target: T1, BaF3-Tel-IGF1-R; experiment: BaF3 cell viability assay (resazurin), 384-well format; type: cell-based; settings: 384-well plate format; 48 h incubation; resazurin dye reduction; cell proliferation/viability
# Excerpt: BaF3-Tel-IGF1-R and BaF3-InsR are BaF3 murine proB-cell lymphoma cell derivatives [the BaF3 cell line (also termed Ba/F3) is available from the German Collection of Microorganisms and Cell Cultures (DSMZ), Braunschweig, Germany] that have been rendered IL-3-independent by stable transduction with kinase-activating fusions between human TEL (aa 1-452) and the kinase domain of IGF-1R (aa 976-1367) linked by a Ser-Arg-linker (Boulay et al, Cancer Res 68, 3743-3751, 2008), and a fusion between human TEL (aa 1-337) and the kinase domain (aa 1015-1382) of the Insulin receptor (Melnick J S et al, Proc Natl Acad Sci USA 103, 3153-3158, 2006), respectively. Cells are cultured in RPMI-1640 (Animed #1-14F01-1) supplemented with 2% L-glutamine (Animed #5-10K50-H) and 10% fetal calf serum (FCS, Animed #2-01F16-I). Wild-type, untransfected BaF3 cells are maintained in above medium plus 10 U/ml IL-3 (mouse Interleukin-3, Roche #1380745 or Invitrogen # PMC0035) and are used to identify non-selective, generally growth-inhibitory compounds. Cells (1.5×10^4 cells per well) are seeded in 190 μl fresh medium into 96-well plates. 10 μl 20× compound solutions are added. As internal control, the kinase inhibitor PKC412 is routinely used. Control cells treated with DMSO (0.1% final concentration) serve as growth reference (set as 100% growth). In addition, a plate blank value is routinely determined in a well containing only […] of medium and no cells. IC50 determinations are performed based on eight 3-fold serial dilutions of the test compound, starting at 10 μM. Following incubation of the cells for 48 h at 37° C. and 5% CO2, the effect of inhibitors on cell viability is assessed by the resazurin sodium salt dye reduction assay (commercially known as AlamarBlue assay) basically as previously described (O'Brien J. et al., Eur. J. Biochem. 267: 5421-5426, 2000). Briefly, 20 μl dye solution is added per well and the plates incubated for 6 h at 37° C. and 5% CO2. Thereafter, fluorescence is measured using a Saphirell 96-well plate reader (TECAN, Männedorf, Switzerland) with the following settings: Excitation 544 nm and Emission 590 nm. For data analysis, the plate blank value is subtracted from all data points. The effect of a particular test compound concentration on cell proliferation and viability is expressed as percentage of the blank-corrected reading obtained for cells treated with vehicle only, which is set as 100%. IC50 values can be determined using XLfit (V4.2), applying standard four parameter logistic model #205 (IDBS, Guilford, UK) or other common curve-fitting software.
# To achieve a higher throughput, the cell viability assay can also be performed in a 384-well format. Briefly, 4′500 freshly diluted cells are seeded in 54 μl/well into 384-well plates using a liquid dispenser. 6 μl 10× compound solution is added to the cell plate. As internal control, the kinase inhibitor PKC412 is routinely used. Control cells treated with DMSO (0.1% final concentration) serve as growth reference (set as 100% growth). In addition, a plate blank value is routinely determined in a well containing only 60 μl of medium and no cells. Dose-response effects are determined by 3-fold serial compound dilutions, starting at 10 μM. Following incubation of the cells for 48 h at 37° C. and 5% CO2, the effect of compounds on cell proliferation/viability is assessed by addition of 6 μl resazurin sodium salt dye solution per well. Following incubation for an additional 6 hrs at 37° C. and 5% CO2, fluorescence is measured using an Infiniti M1000 microplate reader (TECAN, Männedorf, Switzerland) with excitation and emission wavelengths set at 544 and 590 nm, respectively. For data analysis, the plate blank value is subtracted from all data points. IC50 values can be determined by four parameter logistic fitting as described above.
Structure (SMILES),IC50 (BaF3-Tel-IGF1-R [1]) [nM],IC50 (BaF3-Tel-IGF1-R [2]) [nM]
"Cc1cccc(N2CCC(n3c(=N)n(Cc4ccccc4Cl)c4ccccc43)CC2)c1 [Example 54, 1-(2-Chloro-benzyl)-3-(1-m-tolyl-piperidin-4-yl)-1,3-dihydro-benzoimidazol-2-ylideneamine]",405,–
"Cc1cccc(N2CCC(n3c(=N)n(Cc4cc(F)ccc4Cl)c4ccccc43)CC2)c1 [Example 55, 1-(2-Chloro-5-fluoro-benzyl)-3-(1-m-tolyl-piperidin-4-yl)-1,3-dihydro-benzoimidazol-2-ylideneamine]",288,–
"CC(=O)Nc1ccccc1N1CCC(n2c(=N)n(Cc3ccccc3Cl)c3ccccc32)CC1 [Example 56.6, N-(2-{4-[3-(2-Chloro-benzyl)-2-imino-2,3-dihydro-benzoimidazol-1-yl]-piperidin-1-yl}-phenyl)-acetamide]",93,148
"CC(=O)Nc1ccc(Cl)cc1N1CCC(n2c(=N)n(Cc3ccccc3Cl)c3ccc(F)cc32)CC1 [Example 62, N-(4-Chloro-2-{4-[3-(2-chloro-benzyl)-6-fluoro-2-imino-2,3-dihydro-benzoimidazol-1-yl]-piperidin-1-yl}-phenyl)-acetamide]",–,36
"CC(=O)Nc1ccc(Cl)cc1N1CCC(n2c(=N)n(Cc3cccc4[nH]nnc34)c3ccc(F)cc32)CC1 [Example 63, N-(2-{4-[3-(1H-Benzotriazol-4-ylmethyl)-6-fluoro-2-imino-2,3-dihydro-benzoimidazol-1-yl]-piperidin-1-yl}-4-chloro-phenyl)-acetamide]",–,22
"CC(=O)Nc1ccc(Cl)cc1N1CCC(n2c(=N)n(Cc3cccc4[nH]cnc34)c3ccc(F)cc32)CC1 [Example 64, N-(2-{4-[3-(1H-Benzoimidazol-4-ylmethyl)-6-fluoro-2-imino-2,3-dihydro-benzoimidazol-1-yl]-piperidin-1-yl}-4-chloro-phenyl)-acetamide]",–,163
"CC(=O)Nc1ccc(C)nc1N1CCC(n2c(=N)n(Cc3cccc4[nH]ccc34)c3ccc(F)cc32)CC1 [Example 65, N-{4-[6-Fluoro-2-imino-3-(1H-indol-4-ylmethyl)-2,3-dihydro-benzoimidazol-1-yl]-6′-methyl-3,4,5,6-tetrahydro-2H-[1,2′]bipyridinyl-3′-yl}-acetamide]",–,5
"CC(=O)/N=c1\n(Cc2cccc3[nH]ccc23)c2ccccc2n1C1CCN(c2cc(C)ccc2NC(C)=O)CC1 [Example 66, N-(2-{4-[2-Acetylimino-3-(1H-indol-4-ylmethyl)-2,3-dihydro-benzoimidazol-1-yl]-piperidin-1-yl}-4-methyl-phenyl)-acetamide]",–,180
"CC(=O)Nc1ccc(Cl)nc1N1CCC(n2c(=N)n(Cc3ccccc3Cl)c3ccc(F)cc32)CC1 [Example 77, N-{6′-Chloro-4-[3-(2-chloro-benzyl)-6-fluoro-2-imino-2,3-dihydro-benzoimidazol-1-yl]-3,4,5,6-tetrahydro-2H-[1,2′]bipyridinyl-3′-yl}-acetamide]",–,68
"CC(=O)Nc1ccc(C)nc1N1CCC(n2c(=N)n(Cc3ccccc3Cl)c3ccc(F)cc32)CC1 [Example 78, N-{4-[3-(2-Chloro-benzyl)-6-fluoro-2-imino-2,3-dihydro-benzoimidazol-1-yl]-6′-methyl-3,4,5,6-tetrahydro-2H-[1,2′]bipyridinyl-3′-yl}-acetamide]",–,62
